{"source": "paper PMC9464622", "about": "“The collectin SP-A and its trimeric recombinant fragment protect alveolar epithelial cells from the cytotoxic and proinflammatory effects of human cathelicidin in vitro” (Frontiers in Immunology, 2022)", "key": {"[1]": {"tested_on": "P2X7 channels, U937 monocytes", "assay_type": "cell-based, human", "conditions": "A-438079 10 µM, 15 min pre-treatment; LL-37 2.5 µM, SP-A 0.15 µM, rfhSP-A 0.88 µM, 1 hour", "procedure": "(§1) For flow cytometry analysis, A549 cells were grown in RPMI 1640 medium supplemented with antibiotics, 2 mM L-glutamine, and 10% FBS. […] A-438079 stock was resuspended in DMSO to a final concentration of 30 mM and aliquots were stored at 4°C. Cell fluorescence was analyzed after 15, 30 and 60 minutes in a Becton-Dickinson FACS Calibur cytometer, using Cell Quest software.\n(§2) The incorporation of PI in A549 and U937 cell lines was analyzed by flow cytometry. Cells were cultured 18 h in RPMI 1640 medium supplemented with antibiotics, 2 mM L-glutamine, and 10% FBS. Then, cells were harvested and incubated in PBS with 10 µg/ml PI in the presence or absence of 2.5 µM LL-37, 0.15 µM SP-A or 0.88 µM rfhSP-A, and combinations thereof. A549 were incubated at 500,000 cells/ml density and U937 at 1,000,000 cells/ml. PI incorporation was measured after 15, 30, 45 and 60 minutes by flow cytometry. In some experiments, cells were pre-treated with 1 or 10 µM A-438079 or vehicle (DMSO)."}, "[2]": {"tested_on": "P2X7 channels, A549 pneumocytes", "assay_type": "cell-based, human", "conditions": "A-438079 10 µM, 15 min pre-treatment; LL-37 2.5 µM, SP-A 0.15 µM, rfhSP-A 0.88 µM, 1 hour", "procedure": "as §1, §2"}, "[3]": {"tested_on": "A549 cells", "assay_type": "cell-based, human", "conditions": "LL-37 2.5 µM, SP-A 0.15 µM, rfhSP-A 0.88 µM, 15-60 min 37°C; complexes vs LL-37 alone p < 0.001", "procedure": "(§3) Human cell lines of alveolar basal epithelium A549 (ATTC® CCL-185TM) and monocytes U937 (ATTC® CRL-1593.2TM) were incubated in RPMI 1640 supplemented with 10% (v/v) heat-inactivated fetal bovine serum (FBS), antibiotics (100 U/ml penicillin and 100 μg/ml streptomycin), and 2 mM L-glutamine (BioWhittacker).\n(§4) Incorporation of Sytox Green in A549 cells was analyzed by confocal microscopy and flow cytometry analysis.\nas §1"}, "[4]": {"biological_target": "T1, human SP-A (Homo sapiens, UniProt Q8IWL1+Q8IWL2)", "T1 construct": "Human SP-A was isolated from bronchoalveolar lavage fluid of patients with alveolar proteinosis; from tissue; host or cells: bronchoalveolar lavage fluid of patients with alveolar proteinosis", "T1 sequence (Q8IWL2 21-248)": "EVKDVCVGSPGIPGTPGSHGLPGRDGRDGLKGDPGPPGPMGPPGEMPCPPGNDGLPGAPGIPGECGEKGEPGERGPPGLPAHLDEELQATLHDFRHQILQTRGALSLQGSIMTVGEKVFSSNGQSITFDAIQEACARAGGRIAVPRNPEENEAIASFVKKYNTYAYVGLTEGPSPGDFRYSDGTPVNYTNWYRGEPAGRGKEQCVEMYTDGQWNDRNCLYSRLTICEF", "T1 sequence (Q8IWL1 21-248)": "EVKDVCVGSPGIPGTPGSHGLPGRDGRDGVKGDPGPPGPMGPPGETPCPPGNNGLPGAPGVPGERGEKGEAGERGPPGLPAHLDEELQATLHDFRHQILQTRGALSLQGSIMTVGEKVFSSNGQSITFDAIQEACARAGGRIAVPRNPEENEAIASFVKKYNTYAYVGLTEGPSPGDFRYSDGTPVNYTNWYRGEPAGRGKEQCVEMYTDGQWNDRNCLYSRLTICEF", "assay": "Binding of LL-37 to SP-A by intrinsic tryptophan fluorescence titration", "procedure": "(§5) Fluorescence measurements were carried out in 5 x 5 quartz cuvettes using an SLM-Aminco AB-2 spectrofluorimeter equipped with a thermostated cuvette holder (± 0.1°C; Spectronic, Waltham, MA, USA). The slit widths were 4 nm for the excitation and emission beams. The tryptophan fluorescence emission spectrum of SP-A and rfhSP-A was recorded from 305 to 400 nm on excitation at 295 nm at 25°C in 5 mM Tris HCl buffer (pH 7.4), with or without 150 mM NaCl. Subsequently, the titration experiment was started by adding increasing amounts of LL-37 to the protein solution in the cuvette. The fluorescence intensity readings were corrected for the dilution caused by LL-37 addition.\n(§6) The change in the fluorescence of SP-A (or rfhSP-A) at the emission wavelength maximum was monitored as a function of LL-37 concentration, and the titration data were analyzed by nonlinear least squares fitting to the Hill equation, as previously reported ([24], [35], [36]):\n(§7) (1) ΔF/ΔFmax=[L]^nH/([L]^nH+KD)\n(§8) where ΔF is the change in fluorescence intensity at 337 nm relative to the intensity of free SP-A (for free rfhSP-A, the emission wavelength maximum was 342 nm); ΔFmax is the change in fluorescence intensity at saturating LL-37 concentrations; KD is the apparent equilibrium dissociation constant; [L] is the molar concentration of free LL-37; and nH is the Hill coefficient."}, "[5]": {"biological_target": "T2, rfhSP-A (recombinant trimeric fragment of human SP-A) (Homo sapiens, UniProt Q8IWL2)", "T2 construct": "including the globular carbohydrate recognition domain (CRD), neck, and 8 x Gly-Xaa-Yaa repeats of the collagen stalk; His6 (N, cleaved yes); NT* solubility tag (spider silk) with coxsackievirus 3C protease site (N, cleaved yes); made in house; host or cells: Escherichia coli BL21 (DE3)", "T2 sequence (Q8IWL2 77-248 limits assumed)": "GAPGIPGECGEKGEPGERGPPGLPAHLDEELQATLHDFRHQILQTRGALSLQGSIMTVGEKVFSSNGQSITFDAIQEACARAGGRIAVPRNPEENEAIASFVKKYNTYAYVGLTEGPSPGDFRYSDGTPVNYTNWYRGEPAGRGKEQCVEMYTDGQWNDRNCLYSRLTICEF", "assay": "Binding of LL-37 to rfhSP-A by intrinsic tryptophan fluorescence titration", "procedure": "as §5, §6, §7, §8"}, "[6]": {"tested_on": "A549 cells", "assay_type": "cell-based, human", "conditions": "LL-37 2.5 µM, SP-A 0.15 µM, rfhSP-A 0.88 µM, 30 min 37°C; complexes vs LL-37 alone p < 0.001", "procedure": "as §3, §4\nFor confocal microscopy analysis, cells were seeded to a density of 30,000 cells per well in a 24-well tissue culture plate for 18 h in RPMI 1640 tissue culture medium supplemented with 100 U/ml penicillin, 100 μg/ml streptomycin, 2 mM L-glutamine, and with 5% FBS. The following day, Sytox Green (1 µM, final concentration) was added to the wells 10 minutes before the addition of 2.5 µM (11.25 µg/ml) LL-37 and/or 0.15 µM (100 µg/ml) SP-A or 0.88 µM (50 µg/ml) rfhSP-A for an additional 30 minutes. At the end of the incubation, fluorescence and differential interference contrast micrographs were taken under an Olympus FV1200 confocal system. Quantification of permeabilized cells (Sytox Green+) per cell number was performed using Image J software on each of 12 micrographs per treatment and experiment."}, "[7]": {"tested_on": "U937 cells", "assay": "Propidium iodide uptake, U937", "assay_type": "cell-based, human", "conditions": "LL-37 2.5 µM, SP-A 0.15 µM, rfhSP-A 0.88 µM, 15-60 min, 37°C, flow cytometry", "procedure": "as §3, §2"}, "[8]": {"tested_on": "A549 cells", "assay": "Propidium iodide uptake, A549", "assay_type": "cell-based, human", "conditions": "LL-37 2.5 µM, SP-A 0.15 µM, rfhSP-A 0.88 µM, 15-60 min, 37°C, flow cytometry", "procedure": "as §3, §2"}}, "data": [{"smiles": "CC[C@H](C)[C@H](NC(=O)[C@H](CCCCN)NC(=O)[C@H](CCC(=O)O)NC(=O)[C@H](CCCCN)NC(=O)[C@H](CO)NC(=O)[C@H](CCCCN)NC(=O)[C@H](CCCNC(=N)N)NC(=O)[C@H](Cc1ccccc1)NC(=O)[C@H](Cc1ccccc1)NC(=O)[C@H](CC(=O)O)NC(=O)CNC(=O)[C@H](CC(C)C)NC(=O)[C@@H](N)CC(C)C)C(=O)NCC(=O)N[C@@H](CCCCN)C(=O)N[C@@H](CCC(=O)O)C(=O)N[C@@H](Cc1ccccc1)C(=O)N[C@@H](CCCCN)C(=O)N[C@@H](CCCNC(=N)N)C(=O)N[C@H](C(=O)N[C@H](C(=O)N[C@@H](CCC(N)=O)C(=O)N[C@@H](CCCNC(=N)N)C(=O)N[C@H](C(=O)N[C@@H](CCCCN)C(=O)N[C@@H](CC(=O)O)C(=O)N[C@@H](Cc1ccccc1)C(=O)N[C@@H](CC(C)C)C(=O)N[C@@H](CCCNC(=N)N)C(=O)N[C@@H](CC(N)=O)C(=O)N[C@@H](CC(C)C)C(=O)N[C@H](C(=O)N1CCC[C@H]1C(=O)N[C@@H](CCCNC(=N)N)C(=O)N[C@H](C(=O)N[C@@H](CCC(=O)O)C(=O)N[C@@H](CO)C(=O)O)[C@@H](C)O)C(C)C)[C@@H](C)CC)C(C)C)[C@@H](C)CC", "note": "[LL-37]", "values": [{"measurement": "LL-37-induced dye uptake with / without P2X7 inhibitor, U937", "setting": "[1]", "result": "partially mediated by activation of P2X7 channels"}, {"measurement": "LL-37-induced dye uptake with / without P2X7 inhibitor, A549", "setting": "[2]", "result": "partially mediated by activation of P2X7 channels"}, {"measurement": "Sytox Green incorporation, A549, flow cytometry", "setting": "[3]", "result": "induced Sytox Green incorporation in human pneumocytes"}, {"measurement": "Kd", "setting": "[4]", "result": "0.45 ± 0.01", "unit": "nM"}, {"measurement": "Kd", "setting": "[5]", "result": "1.2 ± 0.7", "unit": "nM"}, {"measurement": "Sytox Green incorporation, A549, confocal", "setting": "[6]", "result": "induced Sytox Green incorporation in human pneumocytes"}, {"measurement": "PI uptake, U937 monocytes", "setting": "[7]", "result": "induced significant PI incorporation into human cells as a function of time"}, {"measurement": "PI uptake, A549 pneumocytes", "setting": "[8]", "result": "induced significant PI incorporation into human cells as a function of time"}]}]}
